Data: PubChem BioAssay (NCI)
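Assay format: 96-well plates, 48-hour exposure. TGI denotes the concentration required for complete inhibition of growth.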

Columns and labels:
Assay in all cases: NCI tumour cell line growth inhibition, 48 h
P388 leukemia = system: P388 leukemia
KM20L2 colon = system: KM20L2 colon
M19-MEL melanoma = system: M19-MEL melanoma
HOP-18 NSCLC = system: HOP-18 NSCLC
SNB-78 CNS = system: SNB-78 CNS
DMS 273 small cell lung = system: DMS 273 small cell lung

Measured: TGI

COC1OC(=O)[C@H]2O[N+]([O-])=C(C)[C@@H]12 (stereo not given in full)
> 100 µM: P388 leukemia | KM20L2 colon | M19-MEL melanoma | HOP-18 NSCLC | SNB-78 CNS

Nc1n[nH]c(=O)[nH]1
> 100 µM: P388 leukemia | DMS 273 small cell lung | KM20L2 colon | M19-MEL melanoma | SNB-78 CNS
